# Entries after “also recorded” stand apart in the source; their conditions may differ.
# Columns and labels:
# [1] = system: TrioGEFD2-mediated RhoA activation; assay: RhoA activity assay (Rhotekin RBD pull-down) in COS cells; format: cell-based; settings: COS cells co-transfected, 48 hours
# Description: FIG. 5B represents the inhibitory effect of TRIPα on TrioGEFD2-mediated RhoA activation in intact cells using the RhoA activity assay, COS cells were transfected with GFP-TRIPα (left line), TrioGEFD2 (middle line) or both (right line). Cell lysates were subjected to GST-pulldown using the recombinant RBD (RhoA binding domain) fragment of the RhoA-specific effector Rhotekin. The presence of the GTP-bound form of RhoA and of the total RhoA protein was detected using a monoclonal anti-RhoA antibody and is represented in the upper two panels. GFP-TRIPα and TrioGEFD2 expression in the cell lysates is shown in the lower two panels.
# Quantification of the RhoA activity assay is shown in the right part of the figure. The y-axis represents the ratio between active RhoA and total RhoA, in arbitrary units.
# The Inventors then wanted to assess the inhibition by TRIPα of TrioGEFD2-mediated activation of endogenous RhoA in intact cells. To do so, the RhoA activity assay was used to detect the active GTP-bound form of RhoA (Ren et al., 1999). Briefly, COS cells were transfected as described in FIG. 5A with TrioGEFD2 in absence or in the presence of GFP-TRIAPα. 48 hours after transfection, cell lysates were subjected to GST-pull down using 20 μg of the recombinant RBD (RhoA binding domain) fragment of the RhoA-specific effector Rhotekin, that binds only to the activated GTP-bound form of RhoA.
# [2] = system: NGF-differentiated PC12 cells; assay: LPA-induced neurite retraction; format: cell-based
# Procedure: FIG. 6B represents histograms quantifying the effects of GFP-TRIPα or GFP on LPA (lysophosphatidic acid) induced neurite retraction in NGF-differentiated PC12 cells. The X-axis represents the time after LPA addition in minutes and the Y-axis represents the percentage of transfected cells with neurites.
# Cells were transfected with GFP-TRIPα (white bars) or GFP (black bars) and differentiated with NGF (50 ng/ml). 10 μM LPA was added and neurite retraction was followed for 15 minutes. The number of transfected cells with neurites was counted from at least 200 cells in 3 independent experiments.
# Among the serum components known to trigger neurite retraction and cell rounding in neuronal cells is lysophosphatidic acid (LPA) (Moolenaar et al., 1997). Thus, a similar neurite retraction assay was performed, except that, instead of the serum-containing medium, LPA (10 μM, Sigma) was added to TRIPα transfected and differentiated PC12 cells (FIG. 6B).
# PC12 cells = assay: NGF-induced neurite outgrowth; format: cell-based; settings: NGF 50 ng/ml
# Procedure: PC12 were transfected with GFP-TRIPα (lack squares) or GFP (white diamonds) and subjected to a time-course exposure to NGF (50 ng/ml). At each time-point cells were fixed and the number of transfected cells with neurites was counted from at least 200 cells.
# Since Trio is an activator of RhoA and is expressed in PC12 cells (Estrach et al., 2002), it was analysed whether TRIPα could interfere with serum-induced neurite retraction in NGF-differentiated PC12 cells. […] After NGF treatment, cells were subjected to serum addition (DMEM medium supplemented with 10% HS and 5% fetal calf serum (FCS)) from 0 to 15 min (FIG. 6A). Cells were then fixed and permeabilised (Estrach et al., 2002) and observed as described in FIG. 5. Cells with neurites are defined as cells with neurites of at least twice the length of the cell body.
# However, since the NGF treatment was performed for 16 hours, it was still possible that the effect of TRIPα on the NGF-differentiation signal was masked by the long NGF exposure. To test this hypothesis, PC12 cells expressing GFP-TRIPα or […] were subjected to a time-course exposure to NGF (50 ng/ml) for 1 to 24 hours.
# TrioDH2 = target: T1, TrioDH2 (Homo sapiens, UniProt O75962); assay: In vitro GEF assay on RhoA; format: biochemical; settings: 20-fold molar excess (8 μM) aptamer, 0.4 μM GST-DH2
# T1 construct: TrioDH2 (a.a. 1848-2096); made in house
# Procedure: A 20-fold molar excess (8 μM) of GST-aptamers TRIAPα, TRIAPβ (another TrioGEFD2 binding aptamer), TRIAPγ (another TrioGEFD2 binding aptamer) or the empty thioredoxine (Trx) were pre-incubated with 0.4 μM GST-GEFD2 (left side of FIG. 2A) or 0.4 μM GST-DH2 (right side of FIG. 2A), as indicated, before adding 0.3 μM of [^3H]GDP loaded GST-RhoA. The exchange activity was monitored by the decrease of [^3H]GDP bound-RhoA after 15 min (see Materials and Methods). The amount of [^3H]GDP bound-RhoA incubated without GEF (first bar on the left) was defined as 100% The values and errors bars were calculated from at least three independent experiments.
# An in vitro guanine nucleotide exchange (GEF) assay was used to test whether the TrioGEFD2-binding aptamers could inhibit the catalytic activity of TrioGEFD2 towards RhoA. For this purpose, the aptamers TRIAPα, TRIAPβ and TRIAPγ (including the Trx gene) were excised from pEG202 as EcoRI/NotI fragments and cloned into pGEX4T1 EcoRI/NotI. The aptamers were then expressed and purified from bacteria as GST fusion proteins, using standard procedures (Smith and Johnson, 1988). […] The catalytic activity of TrioGEFD2 was thus measured by the decrease of the GTPase-associated radioactivity. The results are expressed as the ratio “exchange after 15 min over exchange after 0 min” (% bound [^3H]GDP-RhoA). […]
Inhibition of TrioDH2 exchange activity on RhoA in vitro (TrioDH2),Molecule,Inhibition of TrioGEFD2-mediated RhoA activation in intact cells [1],"Effect on LPA-induced neurite retraction ([2]; 10 μM LPA, 15 min)",percentage of transfected cells with neurites after LPA addition ([2]; 15 min after 10 μM LPA),"Effect on NGF-induced neurite outgrowth, time course (PC12 cells; 1 to 24 hours)",Effect on NGF-induced neurite outgrowth after 16 hours NGF (PC12 cells; 16 hours),Inhibition of TrioDH2 exchange activity on RhoA in vitro (TrioDH2; listed as GST-TRIAPα)
–,"AREGADGAICGYNLATLVMLGPSERVFCPLCEPCSSDIYELM [TRIPα, 42-amino acid peptide corresponding to the variable region of TRIAPα]",able to inhibit TrioGEFD2-mediated RhoA activation,prevents serum- and LPA-induced neurite retraction; also recorded: also inhibited LPA-mediated neurite collapse,more than 37%,enhances NGF-induced neurite outgrowth,had no visible effect on the NGF pathway; also recorded: does not seem to have an effect,–
inhibits,TRIAPα: aptamer of 154 amino acids: variable region of 42 amino acids inserted into the thioredoxin protein; tested as GST fusion (protein) MSDKIIHLTDDSFDTDVLKADGAILVDFWAEWCGPAREGADGAICGYNLATLVMLGPSERVFCPLCEPCSSDIYELMGPCKMIAPILDEIADEYQGKLTVAKLNIDQNPGTAPKYGIRGIPTLLLFKNGEVASATKVGALSKGQLKEFLDANLA,–,–,–,–,–,inhibited both TrioGEFD2 and TrioDH2 exchange activities
